# Experimental data as given in patent US12527763B2, “Pyrrole amide compound and use thereof” (SUNSHINE LAKE PHARMA CO., LTD., priority 2019, dated 2026).
# Counter-ions that a name gives are not always drawn. Like-named read-outs stand apart in the source and are kept apart here.
# Columns and labels:
# Balb/c 3T3 fibroblast = details: PMDA Examination Report (Jan. 8, 2019); cited from earlier work
# [1] = Pharmacokinetic experiment in cynomolgus monkey; assay type: in vivo, cynomolgus monkeys; details: oral, 3 mg/kg; for AUC(0-inf) / Cmax / Tmax / half-life: cynomolgus monkey, plasma, female cynomolgus monkeys
# Procedure: Three female cynomolgus monkeys of 3.0-3.5 kg were taken and orally administered with the test compound at a dosage of 3 mg/kg; after the administration, blood was collected at the time points of 0.083, 0.25, 0.5, 1, 2, 4, 6, 8, 24, 32 and 48 hours. A standard curve was established within an appropriate range based on the sample concentration, and AB SCIEX API 5000 LC-MS/MS was used to determine the concentration of the test compounds in the plasma sample in the MRM mode. According to the drug concentration-time curve, WinNnonlin 6.3 software non-compartmental model method was used to calculate the pharmacokinetic parameters.
# [2] = Pharmacokinetic experiment in Beagle dogs; assay type: in vivo; details: oral, 5.0 mg/kg; for AUC(0-inf) / Cmax / Tmax / half-life: dog, plasma
# Procedure: Beagle dogs 8-10 kg were randomly divided into two groups, and the test compound was administered orally at a dosage of 5.0 mg/kg; after administration, blood was collected at the time points of 0.0833, 0.25, 0.5, 1.0, 2.0, 4.0, 6.0, 8.0, 24.0, 32.0 and 48.0 hours. A standard curve was established within a suitable range according to the sample concentration, and AB SCIEX API4000 LC-MS/MS was used to determine the concentration of the test compounds in the plasma sample in the MRM mode. According to the drug concentration-time curve, the WinNonLin 6.3 software non-compartmental model method was used to calculate the pharmacokinetic parameters.
# [3] = biological target: mineralocorticoid receptor (MR) (Homo sapiens (Human), UniProt P08235); experiment: In vitro activity test: MR LBD-Gal4 DBD dual luciferase reporter gene assay in HEK293 cells with aldosterone at EC80; assay type: cell-based; details: antagonism of aldosterone at EC80, 18 hours
# mineralocorticoid receptor (MR), sequence (P08235 726-964, species assumed): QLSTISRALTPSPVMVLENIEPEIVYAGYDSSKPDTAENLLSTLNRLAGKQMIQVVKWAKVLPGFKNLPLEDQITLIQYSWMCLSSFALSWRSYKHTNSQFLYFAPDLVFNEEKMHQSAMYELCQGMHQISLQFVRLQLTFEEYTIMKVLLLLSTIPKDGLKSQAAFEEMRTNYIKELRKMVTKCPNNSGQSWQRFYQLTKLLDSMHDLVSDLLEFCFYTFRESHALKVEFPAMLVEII
# Description: Using the characteristics of luciferase binding to the substrate to generate a chemiluminescence reaction, the plasmid containing mineralocorticoid receptor (MR) ligand binding domain (LBD) fused with Gal4 DNA binding domain (DBD) and the firefly luciferase reporter gene plasmid under the control of Gal4 UAS (upstream activation sequence) are transfected into human embryonic kidney cells (HEK293). The changes in mineralocorticoid receptor activity before and after stimulation or the influence of different stimuli on mineralocorticoid receptor activity are judged by the level of firefly luciferase activity. At the same time, in order to reduce the impact of internal change factors on the accuracy of the experiment, the plasmid with Renilla luciferase gene is used as a control plasmid to transfect cells to provide an internal control for transcriptional activity, so that the test results are not interfered by changes in experimental conditions.
# • 1) The HEK293 cells were collected after trypsinization and the cell density was adjusted to 500,000 cells/mL; • 2) FuGENE HD transfection reagent was added to the cell suspension; • 3) The above cell suspension was inoculated into a 96-well cell culture plate of 100 μL/well, and incubated for 24 hours at 37° C., 5% CO2; • 4) A series of concentrations of the test compound solution and EC80 concentration of agonist aldosterone were added to each well and incubated for 18 hours; • 5) Firefly and Renilla luciferase signals were detected by Promega dual luciferase reporter gene test system. Result Processing: • 1) After obtaining the firefly luciferase signal (F) and the Renilla luciferase signal (R), the Renilla luciferase signal was used for correction, that is, the F/R value was used for subsequent calculation of inhibition rate; • 2)% inhibition rate=(Max−X)/(Max−Min)×100%, wherein Max is the F/R value of the positive control well, Min is the F/R value of the negative control well, and X is the test compound well of different concentrations F/R value; • 3) IC50 was calculated by GraphPrism 5.0 mapping software.
# Balb/c 3T3 cells [4] = experiment: In vitro 3T3 cell neutral red uptake phototoxicity test; details: for IC50: Mus musculus
# Procedure: (§1) Preparation of the test compound solution: The test compound was dissolved in dimethyl sulfoxide to obtain a 10 mg/mL solution, and then diluted with dimethyl sulfoxide in multiples of 2.15 times into solutions of different concentrations.
# (§2) Balb/c 3T3 cells were seeded on 96-well culture plates. After 24 hours of culture, the culture medium was discarded, different concentrations of test compounds or balanced salts (HBSS) solution containing positive control substance (chlorpromazine hydrochloride, CPZ) and vehicle control substance were added. Two culture plates of each concentration of the test compound and the positive control substance are a light (+UV) plate and a non-light (-UV) plate, respectively. After incubating for 1 hour, the light plate was placed under UVA with a light intensity of about 1.7 mw/cm2 until the light dose reached 5.0 J/cm2. The non-light plate was placed at room temperature and protected from light for the same time. After the light was over, the culture medium was replaced with fresh one and continuously cultured for 18-22 hours. About 3 hours before the culture was complete, the culture medium was replaced with a medium containing neutral red and serum-free. After incubation, neutral red eluent was added, the absorbance value (OD540) of each well at 540 nm was measured after shaking. The cell 50% inhibitory concentration (IC50), light stimulating factor (PIF) and/or average light effect (MPE) were calculated. The phototoxicity of the compound was determined according to the following criteria: PIF>5 is judged as positive for phototoxicity; 5>PIF>2 is judged as possible phototoxicity; 2>PIF is judged as no phototoxicity.
# Balb/c 3T3 cells [5] = details: mouse, 1 h
# Procedure: as §1, §2
# [6] = BALB/c3T3, light or radiation study, read-out: IC50 (+UV)
# [7] = BALB/c3T3, read-out: IC50 (−UV)
smiles,measurement,setting,value
"Cc1c(C(=O)Nc2ccc(S(C)(=O)=O)cc2)cn(CCO)c1-c1ccccc1C(F)(F)F (atropisomer, axis not shown) [CS-3150, Esaxerenone, reference compound]",light stimulus factor PIF,Balb/c 3T3 fibroblast,> 17
same,phototoxicity (in words),Balb/c 3T3 fibroblast,phototoxic
same,AUC(0-inf),[1],8990 ng·h/mL
same,Cmax,[1],741 ng/mL
same,Tmax,[1],1.67 h
same,half-life,[1],9.63 h
same,AUC(0-inf),[2],45600 ng·h/mL
same,Cmax,[2],1580 ng/mL
same,Tmax,[2],2.33 h
same,half-life,[2],20.3 h
"Cc1c(C(=O)Nc2ccc(S(C)(=O)=O)c(F)c2)cn(-c2cccnc2)c1-c1ccccc1C(F)(F)F [Example 7, N-(3-Fluoro-4-(methylsulfonyl)phenyl)-4-methyl-1-(pyridin-3-yl)-5-(2-(trifluoromethyl)phenyl)-1H-pyrrole-3-carboxamide]",IC50,[3],84.5 nM
"Cc1c(C(=O)Nc2ccc(S(C)(=O)=O)c(F)c2)cn(CC2CCO2)c1-c1ccccc1C(F)(F)F (stereo not shown) [Example 5, N-(3-Fluoro-4-(methylsulfonyl)phenyl)-4-methyl-1-(oxetan-2-ylmethyl)-5-(2-(trifluoromethyl)phenyl)-1H-pyrrole-3-carboxamide]",IC50,[3],21.5 nM
"Cc1c(C(=O)Nc2ccc(S(C)(=O)=O)c(F)c2)cn(CCO)c1-c1ccccc1C(F)(F)F [Example 1, N-(3-Fluoro-4-(methylsulfonyl)phenyl)-1-(2-hydroxyethyl)-4-methyl-5-(2-(trifluoromethyl)phenyl)-1H-pyrrole-3-carboxamide]",IC50,[3],6.93 nM
"Cc1c(C(=O)Nc2ccc([S@SP2](C)(=O)=O)c(F)c2)cn(CCO)c1-c1ccccc1C(F)(F)F [Example 2, (S)-1-(2-Hydroxyethyl)-4-methyl-N-(3-fluoro-4-(methylsulfonyl)phenyl)-5-(2-(trifluoromethyl)phenyl)-1H-pyrrole-3-carboxamide]",AUC(0-inf),[1],22000 ng·h/mL
same,Cmax,[1],1040 ng/mL
same,Tmax,[1],5.3 h
same,half-life,[1],13 h
same,pharmacokinetic properties compared to the control compound CS-3150,[1]; cynomolgus monkeys,"higher exposure, blood concentration and bioavailability"
same,IC50,[3],3.4 nM
same,AUC(0-inf),[2],145000 ng·h/mL
same,Cmax,[2],4690 ng/mL
same,Tmax,[2],3.33 h
same,half-life,[2],25.3 h
same,pharmacokinetic properties compared with the control compound CS-3150,[2],"higher exposure, blood concentration and long half-life"
same,MPE (average light effect),"Balb/c 3T3 cells [4]; Balb/c 3T3 cells, +UV vs −UV",−0.044
same,PIF (light stimulating factor),"Balb/c 3T3 cells [4]; Balb/c 3T3 cells, +UV vs −UV",1.289
same,IC50,Balb/c 3T3 cells [4]; [6],49.6 µg/mL
same,IC50,Balb/c 3T3 cells [4]; [7],63.8 µg/mL
same,in vitro phototoxicity (in words),Balb/c 3T3 cells [4]; conclusion from Table 6,no in vitro phototoxicity
same,Phototoxicity,Balb/c 3T3 cells [4]; judged from PIF,− (2>PIF is judged as no phototoxicity)
"Cc1c(C(=O)Nc2ccc(S(C)(=O)=O)c(F)c2)cn(CC2(O)CC2)c1-c1ccccc1C(F)(F)F [Example 3, N-(3-Fluoro-4-(methylsulfonyl)phenyl)-1-((1-hydroxycyclopropyl)methyl)-4-methyl-5-(2-(trifluoromethyl)phenyl)-1H-pyrrole-3-carboxamide]",IC50,[3],47.6 nM
"Cc1c(C(=O)Nc2ccc(S(C)(=O)=O)c(F)c2)cn(C2COC2)c1-c1ccccc1C(F)(F)F [Example 6, N-(3-Fluoro-4-(methylsulfonyl)phenyl)-4-methyl-1-(oxetan-3-yl)-5-(2-(trifluoromethyl)phenyl)-1H-pyrrole-3-carboxamide]",IC50,[3],30.3 nM
"Cc1c(C(=O)Nc2cc(F)c3c(c2)sc(=O)n3C)cn(CCO)c1-c1ccccc1C(F)(F)F [Example 8, N-(4-Fluoro-3-methyl-2-oxo-2,3-dihydrobenzo[d]thiazol-6-yl)-1-(2-hydroxyethyl)-4-methyl-5-(2-(trifluoromethyl)phenyl)-1H-pyrrole-3-carboxamide]",IC50,[3],82.2 nM
"CN(C)CCCN1c2ccccc2Sc2ccc(Cl)cc21 [CPZ, chlorpromazine hydrochloride, reference compound]",MPE (average light effect),Balb/c 3T3 cells [5],0.368
same,PIF (light stimulating factor),Balb/c 3T3 cells [5],37.381
same,IC50,Balb/c 3T3 cells [4]; [6],0.982 µg/mL
same,IC50,Balb/c 3T3 cells [4]; [7],36.7 µg/mL
